The values that follow are results of earlier work, collected in patent publication US20110144047A1, “COMBINED METHOD FOR PREDICTING THE RESPONSE TO AN ANTI-CANCER THERAPY” (DAKO DENMARK A/S, priority 2008, published 2011).

The subject of the data set is murine fibro sarcoma cells derived from TIMP-1 gene-deficient mice. As to conditions: in vitro; previously published by the inventors.

As to `COc1cc([C@@H]2c3cc4c(cc3[C@@H](O[C@@H]3O[C@@H]5CO[C@@H](C)O[C@H]5[C@H](O)[C@H]3O)[C@H]3COC(=O)[C@H]23)OCO4)cc(OC)c1O` [etoposide], the “sensitivity of TIMP-1 gene-deficient cells compared with wild-type cells expressing TIMP-1” value is reported as “significantly more sensitive”.
